Data from PMC9765455 (Science Translational Medicine, 2022).
Several values for one entry are separate records, joined by “and”; a condition that tells them apart may be missing. Equal entries are not always repeated. Where two headings read alike, the source gives them in different places.

Tests used:
SARS-CoV-2 Delta variant [1] = system: SARS-CoV-2 Delta variant; set-up: species or system Syrian hamsters; settings: hamster, in vivo
SARS-CoV-2 Delta variant [2] = assay type: in vivo, Syrian hamsters; settings: for viral load in the lungs of contact hamsters: 6 days after co-housing
SARS-CoV-2 Delta variant [3] = system: SARS-CoV-2 Delta variant; set-up: species or system Syrian hamsters; settings: hamster, in vivo; remark: listed apart in the source
SARS-CoV-2 Delta variant [4] = assay type: in vivo, Syrian hamsters; settings: for lung pathology / histopathological findings of viral pneumonia: hamster, in vivo; for histopathological severity of viral pneumonia / viral RNA by ISH: therapeutic treatment
SARS-CoV-2 Delta variant [5] = experiment: Light sheet microscopy of whole lungs (viral antigen distribution); set-up: species or system Syrian hamsters; settings: hamster, in vivo
SARS-CoV-2 Delta variant [6] = assay type: cell-based; settings: Vero-TMPRSS2 and Calu-3 cells
[7] = system: SARS-CoV-2 Omicron variant (lineage BA.1); assay type: cell-based; settings: Vero-TMPRSS2, fig. S5
SARS-CoV-2 Delta variant [8] = assay type: cell-based; settings: Vero-TMPRSS2 and Calu-3 cells; remark: listed apart in the source
SARS-CoV-2 Delta variant [9] = assay type: cell-based; settings: HBE cells, 333 nM or more; detection limit of the plaque assay
SARS-CoV-2 Delta variant [10] = assay type: cell-based; settings: HBE cells
SARS-CoV-2 Delta variant [11] = experiment: Time of addition assay in Calu-3 cells; assay type: cell-based
SARS-CoV-2 Delta variant [12] = experiment: Antiviral activity of main protease inhibitors with P-gp inhibitor CP-100356 (intracellular viral RNA); assay type: cell-based; settings: Vero-TMPRSS2; S-217622 100 nM, nirmatrelvir 300 nM; CP-100356 1 μM
[13] = prophylactic, MPV, S-217622 30 mg/kg
[14] = prophylactic, S-217622 200 mg/kg

Structure (SMILES): CC(C)C(=O)OC[C@H]1O[C@@H](n2ccc(NO)nc2=O)[C@H](O)[C@@H]1O [Molnupiravir, reference compound]
- Fig. 2H: Relative Ifng RNA level (SARS-CoV-2 Delta variant [1]; listed as MPV): 3.06 and 2.07 and 2.71 and 2.27
- Fig. 2I: Relative Il6 RNA level (SARS-CoV-2 Delta variant [1]; listed as MPV): 2.40 and 3.11 and 2.02 and 2.46
- Fig. 2J: Relative Il10 RNA level (SARS-CoV-2 Delta variant [1]; listed as MPV): 3.33 and 2.30 and 2.69 and 2.83
- Fig. 2K: Relative Cxcl10 RNA level (SARS-CoV-2 Delta variant [1]; listed as MPV): 14.61 and 18.50 and 12.76 and 10.96
- viral load in the lungs of contact hamsters (SARS-CoV-2 Delta variant [2]; […]): high viral load was detected
- Fig. 2N: Virus titer (SARS-CoV-2 Delta variant [2]; hamster, in vivo, listed as MPV): 1250000 and 1400000 and 800000
- viral loads in nasal turbinates (SARS-CoV-2 Delta variant [3]): limited effect
- viral loads in the lungs (SARS-CoV-2 Delta variant [3]): decreased
- Fig. 4E: Virus titer (SARS-CoV-2 Delta variant [3]; listed as MPV): 700000 and 600000 and 1200000
- Fig. 4G: Relative Ifng RNA level (SARS-CoV-2 Delta variant [3]; listed as MPV): 3.06 and 2.07 and 2.71 and 2.27
- Fig. 4H: Relative Il6 RNA level (SARS-CoV-2 Delta variant [3]; listed as MPV): 2.40 and 3.11 and 2.02 and 2.46
- Fig. 4I: Relative Il10 RNA level (SARS-CoV-2 Delta variant [3]; listed as MPV): 3.33 and 2.30 and 2.69 and 2.83
- Fig. 4J: Relative Cxcl10 RNA level (SARS-CoV-2 Delta variant [3]; listed as MPV): 14.61 and 18.50 and 12.76 and 10.96
- Fig. 4K: Neutralizing antibody titer (SARS-CoV-2 Delta variant [3]; listed as MPV): 640 and 1280
- Histopathological severity score (SARS-CoV-2 Delta variant [4]; Fig. 5B, MPV group, individual animals, listed as MPV): 17 and 13
- Histopathological severity score (SARS-CoV-2 Delta variant [4]; Fig. 5D, MPV group, individual animals, listed as MPV): 17 and 12 and 18 and 19
- lung pathology / histopathological findings of viral pneumonia (SARS-CoV-2 Delta variant [4]): prominent
- viral RNA by in situ hybridization (ISH) (SARS-CoV-2 Delta variant [4]; [13]): decreased
- histopathological severity of viral pneumonia (SARS-CoV-2 Delta variant [4]): neither MPV or S-217622 could attenuate
- viral RNA by ISH (SARS-CoV-2 Delta variant [4]): Positive signals for viral RNA were also detected
- signal distribution of viral antigen in the lungs (SARS-CoV-2 Delta variant [5]): decreased the viral distribution

Structure (SMILES): Cn1cnc(Cn2c(=O)[nH]/c(=N\c3cc4cn(C)nc4cc3Cl)n(Cc3cc(F)c(F)cc3F)c2=O)n1 [S-217622]
- progeny viral RNA in the culture supernatants (SARS-CoV-2 Delta variant [6]): reduced the progeny viral RNA
- antiviral potency against Omicron variant (lineage BA.1) [7]: remarkable antiviral potency
- Infection with SARS-CoV-2 (immunofluorescence) (SARS-CoV-2 Delta variant [8]): inhibited
- progeny virus titers (SARS-CoV-2 Delta variant [9]): < 100
- LDH release into basal culture medium (SARS-CoV-2 Delta variant [10]): decreased
- Fig. 1I: Relative viral RNA to mock treated (SARS-CoV-2 Delta variant [11]; Both stages, third column group c10-c13): 0.047 and 0.045 and 0.032
- effect on cellular entry process (0 to 2 hpi) (SARS-CoV-2 Delta variant [11]; Calu-3, 1 μM): but not the cellular entry process of infection
- effect on post-entry process (2 to 7 hpi) (SARS-CoV-2 Delta variant [11]; Calu-3, 1 μM): has an effect on the post-entry process
- Fig. 1I: Relative viral RNA to mock treated (SARS-CoV-2 Delta variant [11]; Entry, first column group c0-c3): 1.24 and 0.89 and 1.15
- Fig. 1I: Relative viral RNA to mock treated (SARS-CoV-2 Delta variant [11]; Entry, third column group c10-c13): 0.033 and 0.037 and 0.04
- Fig. 1I: Relative viral RNA to mock treated (SARS-CoV-2 Delta variant [11]; Post-entry, first column group c0-c3): 0.007 and 0.006
- Fig. 1I: Relative viral RNA to mock treated (SARS-CoV-2 Delta variant [11]; Post-entry, third column group c10-c13): 1.03 and 0.85 and 0.71
- effect of CP-100356 on antiviral activity (SARS-CoV-2 Delta variant [12]): enhanced
- antiviral activity compared with nirmatrelvir in hamsters (SARS-CoV-2 Delta variant [1]): higher antiviral activity than nirmatrelvir
- body weight (SARS-CoV-2 Delta variant [1]): continuously gained weight
- decrease in viral RNA load (SARS-CoV-2 Delta variant [1]): more than 10^5 fold
- expression of inflammatory cytokines (SARS-CoV-2 Delta variant [1]): decreased the expression of inflammatory cytokines
- seroconversion (SARS-CoV-2 Delta variant [1]): No seroconversion was observed
- virus titers (SARS-CoV-2 Delta variant [1]): under the detection limit
- Fig. 2D: Viral RNA (SARS-CoV-2 Delta variant [1]; 30 mg/kg): 9351446 and 5264474 and 6254487 and 4687980
- Fig. 2F: Virus titer (SARS-CoV-2 Delta variant [1]; 30 mg/kg): 2500000 and 1700000 and 2600000 and 3300000
- Fig. 2I: Relative Il6 RNA level (SARS-CoV-2 Delta variant [1]; 30 mg/kg): 1.88 and 3.04 and 1.64 and 1.56
- Fig. 2K: Relative Cxcl10 RNA level (SARS-CoV-2 Delta variant [1]; 30 mg/kg): 5.91 and 3.38 and 3.37 and 5.99
- Fig. 2L: Neutralizing antibody titer (SARS-CoV-2 Delta variant [1]; 30 mg/kg): 160 and 320
- Fig. 2F: Virus titer (SARS-CoV-2 Delta variant [1]; 200 mg/kg): n.d.(=100)
- Fig. 2G: Virus titer (SARS-CoV-2 Delta variant [1]; 200 mg/kg): n.d.(=100)
- Fig. 2I: Relative Il6 RNA level (SARS-CoV-2 Delta variant [1]; 200 mg/kg): 1.73 and 2.57 and 2.07 and 2.20
- Fig. 2K: Relative Cxcl10 RNA level (SARS-CoV-2 Delta variant [1]; 200 mg/kg): 0.55 and 0.70 and 0.74 and 0.64
- Fig. 2L: Neutralizing antibody titer (SARS-CoV-2 Delta variant [1]; 200 mg/kg): n.d.(=10)
- viral load in the lungs of contact hamsters (SARS-CoV-2 Delta variant [2]; […]): no detectable viral titers
- Fig. 2N: Virus titer (SARS-CoV-2 Delta variant [2]; hamster, in vivo, 200 mg/kg): n.d.(=100)
- Fig. 2N: Virus titer (SARS-CoV-2 Delta variant [2]; second block c10-c12 (six animals: contact hamsters, 6 days after co-housing), […], 200 mg/kg): n.d.(=100)
- decrease of virus titer in the lung (SARS-CoV-2 Delta variant [3]): greater than 10^3 fold
- expression of Il6 (SARS-CoV-2 Delta variant [3]): decreased the expression of Il6
- peak of body weight loss (SARS-CoV-2 Delta variant [3]): 7% and 5%
- viral loads in nasal turbinates (SARS-CoV-2 Delta variant [3]): limited effect
- viral loads in the lungs (SARS-CoV-2 Delta variant [3]): decreased
- Fig. 4H: Relative Il6 RNA level (SARS-CoV-2 Delta variant [3]; 30 mg/kg): 1.88 and 3.04 and 1.64 and 1.56
- Fig. 4J: Relative Cxcl10 RNA level (SARS-CoV-2 Delta variant [3]; 30 mg/kg): 5.91 and 3.38 and 3.37 and 5.99
- Fig. 4C: Viral RNA (SARS-CoV-2 Delta variant [3]; 200 mg/kg): 184497 and 149004 and 250553 and 219560
- Fig. 4H: Relative Il6 RNA level (SARS-CoV-2 Delta variant [3]; 200 mg/kg): 1.73 and 2.57 and 2.07 and 2.20
- Fig. 4J: Relative Cxcl10 RNA level (SARS-CoV-2 Delta variant [3]; 200 mg/kg): 0.55 and 0.70 and 0.74 and 0.64
- Histopathological severity score (SARS-CoV-2 Delta variant [4]; Fig. 5B, S-217622 dose group 30, individual animals): 14 and 7 and 4 and 5
- Histopathological severity score (SARS-CoV-2 Delta variant [4]; Fig. 5B, S-217622 dose group 200, individual animals): 3 and 5 and 4 and 7
- Histopathological severity score (SARS-CoV-2 Delta variant [4]; Fig. 5D, S-217622 dose group 30, individual animals): 14 and 16 and 15 and 13
- Histopathological severity score (SARS-CoV-2 Delta variant [4]; Fig. 5D, S-217622 dose group 200, individual animals): 17 and 19 and 20 and 6
- lung pathology / histopathological findings of viral pneumonia (SARS-CoV-2 Delta variant [4]): attenuated the lung pathology in a dose-dependent manner
- viral RNA by in situ hybridization (ISH) (SARS-CoV-2 Delta variant [4]; [13]): decreased
- Histopathological severity score (SARS-CoV-2 Delta variant [4]; [14]): lower than the vehicle control group
- viral RNA by in situ hybridization (ISH) (SARS-CoV-2 Delta variant [4]; [14]): undetectable
- histopathological severity of viral pneumonia (SARS-CoV-2 Delta variant [4]): neither MPV or S-217622 could attenuate
- viral RNA by ISH (SARS-CoV-2 Delta variant [4]): Positive signals for viral RNA were also detected
- signal distribution of viral antigen in the lungs (SARS-CoV-2 Delta variant [5]): limited

Structure (SMILES): CC(C)(C)[C@H](NC(=O)C(F)(F)F)C(=O)N1C[C@H]2[C@@H]([C@H]1C(=O)N[C@H](C#N)C[C@@H]1CCNC1=O)C2(C)C [Nirmatrelvir]
- effect of CP-100356 on antiviral activity (SARS-CoV-2 Delta variant [12]): enhanced
